{
  "source": "patent EP1293213A1",
  "about": "“PREVENTIVES/REMEDIES FOR POSTOPERATIVE STRESS” (Japan Tobacco Inc., priority 2000, dated 2001)",
  "key": {"[1]": {"biological_target": "T1, CRF type I(CRF-I) receptor (Homo sapiens, UniProt P34998)", "T1 construct": "expressed in transfected cells; membrane fraction", "T1 sequence (P34998 24-415)": "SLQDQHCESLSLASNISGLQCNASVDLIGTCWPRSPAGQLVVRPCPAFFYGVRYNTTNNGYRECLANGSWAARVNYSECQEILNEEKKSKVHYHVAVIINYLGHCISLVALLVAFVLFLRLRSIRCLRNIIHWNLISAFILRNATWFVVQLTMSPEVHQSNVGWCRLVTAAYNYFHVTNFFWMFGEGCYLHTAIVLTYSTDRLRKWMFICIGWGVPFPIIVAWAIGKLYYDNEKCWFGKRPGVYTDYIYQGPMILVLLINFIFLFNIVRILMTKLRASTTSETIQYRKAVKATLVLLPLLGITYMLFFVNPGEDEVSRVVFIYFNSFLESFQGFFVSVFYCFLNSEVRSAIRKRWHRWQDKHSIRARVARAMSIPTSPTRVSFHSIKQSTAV", "test": "in vitro Binding Assay using membrane fraction of recombinant cell (6EF2B) expressing CRF receptor gene (SPA method)", "conditions": "125I-Tyr0-human/rat CRF, membrane fraction of 6EF2B cells (derived from Hela cell)", "protocol": "Experiment 1 : in vitro Binding Assay using membrane fraction of recombinant cell (6EF2B) with expression of CRF receptor gene\nPreparation of membrane fraction:\nRecombinant cells 6EF2B (derived from Hela cell), which express CRF type I(CRF-I) receptor gene stably, were cultivated in Eagle's MEM medium(10%FCS, 400ug/ml G418.1/100 penicillin/streptomycin). After cultivation, cells were suspended in 50mM Tris-HCl (pH7.2) solution containing 1mM EDTA and incubated at 25°C for 15 to 30 minutes. After that, every step was carried out at 4°C. Treated cells were suspended in 50mM Tris-HCl(pH7.2) containing 10% sucrose and homogenized by a Polytron(PT10-35 model). This step of homogenization was carried out at 25,000 rpm for 15 to 20 seconds and repeated twice or three times. In the course of this step the homogenates were inspected under a microscope. Homogenates were centrifuged at 600 x g for 5 minutes and the supernatant was centrifuged again at 40,000 x g for 30 minutes. The obtained pellet was resuspended in 50mM Tris-HCl(10mM MgCl2, 2mM EGTA) and the suspension was centrifuged again at 40,000 x g for 30minutes. The obtained pellet was used for further experiments as membrane fraction. The membrane fraction was diluted with 50mM Tris-HCl(10mM MgCl2, 2mM EGTA, 0.1%BSA, 100 kallikrein units/ml aprotinin, 0.1mM bacitracin, pH7.2) to have the concentration of 1mg/ml and then stored at -80°C. DC protein assay kit (produced by Bio-RAD) was used to determine the protein concentration of the membrane fraction.\nBinding Assay using CRF-I receptor by means of SPA method:\nCompounds to be evaluated were stored at the concentration of 10mM in DMSO. […] The assay buffer consisted of 50mM Tris-HCl (pH7.7) containing 100mM NaCl, 5mM KCl, 2mM CaCl2, 0.1% BSA, 0.1% bacitracin, 0.05% FCS and 5% horse serum. The reactions were carried out in 96-well Optiplate(Packard) in which to 50ul of the test substance solution, were added 50ul of WGA-beads & membrane fraction (50 to 100ug membrane fraction/10mg beads/ml) pre-coupled by stirring (rotating with 10rpm) at room temperature for 2 hours on the day of experiment, and 100ul of 0.4nM ^125I-Tyr^0-human/rat CRF(NEX-216, Dupont NEN), to be made up 200ul as total volume, and the mixture was incubated at 25°C for 3 hours. By the way, the step of pre-coupling was carried out by using beads solution (20mg/ml) suspended in 50mM Tris-HCl buffer solution (pH7.2) and after stirring beads were washed twice with Tris-HCl buffer and once with assay buffer by centrifugation (3000 rpm, 5 minutes). In order to measure total binding and non-specific binding activity, assay buffer solution and 1uM(final conc.) cold human /rat CRF(C-3042; SIGMA) solution were used respectively in place of test substance solution. After incubation, the mixture was centrifuged at 23 °C, 2,500 rpm for 5 minutes and the scintillation was counted with Top Count (Packard). An influence of color quench was corrected by standard curve made by using tartrazine as a quencher. Evaluation of samples was carried out several times."}, "[2]": {"tested_on": "adrenocorticotropic hormone(ACTH)", "test": "Experiment 2: Model of surgical stress in mouse (inhibitory action of rise in releasing of ACTH)", "assay_type": "in vivo", "conditions": "ddY male mice, intravenous, surgical stress (abdominal incision, bowel draped externally)", "protocol": "Experiment 2: Model of surgical stress in mouse (Inhibitory action of rise in releasing of adrenocorticotropic hormone(ACTH))\nddY male mice(SLC, 7 to 8 weeks of age: weight 34 to 42g)were used for experiments. Mice were housed before use under controlled lighting condition (12hours light and 12hours dark cycle(lights on from 8:00 to 20:00) at 23±3 °C and 55±15% humidity, and maintained with basal diet and water ad labium. On the experimental day, mice were moved to experimental room and habituated before experiment for more than 1 hour. On the day before experiment, mice were previously handled (by being fastened up for 10 to 15 seconds like the case of i.p. injections) to habituate to the stress caused by handling.\nMedicine and administration:\nTest compound to be evaluated was dissolved in and diluted with physiological saline(Otsuka), 5% mannitol or 0.1N NaHCO3/saline. Then the test sample solution was given into veins of mice at a dose of 10ml/Kg body weight. The same solvent alone mentioned above was given into veins of control mice group at a dose of 10ml/Kg weight.\nMice were anesthetized by injection of pentobarbital Na (2.5mg/mouse i.p.) and after 15 minutes the solvent alone or the solution containing test sample to be evaluated were intravenously injected on the tails of mice at a dose of 10ml/ Kg weight of mouse. After more 10 minutes a midline incision was made in the abdomen and in two minutes bowel was draped externally. Then 2.5 minutes after incision 0.6ml of blood samples were collected from main vein abdominalis for 1 minute gradually by using prechilled syringes(needle size 25G), which were wetted with 100mM EDTA solution. Control mice not subjected to surgical stress were decapitated and blood samples were collected at 13 to 14 minutes after medication of solvent alone and to them added 20ul of 100mM EDTA. Blood samples collected were put into siliconized tubes and centrifuged at 10,000rpm and 4°C for 5 minutes. The concentration of ACTH in supernatant was determined by IRMA method using Allegro ACTH kit (Nihon Medi+Physics Co.,Ltd.). […]"}, "[3]": {"tested_on": "corticosterone", "test": "Test 2: Effects on a rise in releasing of corticosterone caused by surgical stress", "assay_type": "in vivo, mouse", "conditions": "mice", "protocol": "Test 2 Effects on a rise in releasing of stress hormone caused by surgical stress - effects on a rise in releasing of corticosterone, adrenocortical hormone.\nMice (ddY Slc male, 7weeks of age) handled by being fastened up before the day of experiment were divided equally into groups according to their weights on the experimental day (the number of mouse in one group was 6 to 7). Mice were anesthetized by i.p. injections of 2.5mg/mouse pentobarbital Na(Nembutal(brand name)), Dainihonseiyaku) and, 20 minutes later, the solvent(0.1N HCl/saline) or test medicine CP154,526HCl(0.3, 1, 3 or 10 mg/kg) were intravenously injected into the tail veins of mice at a dose of 10ml/Kg weight of mouse. 5 Minutes after injection, a midline incision was made in the abdomen, and in about one to two minutes movable bowel was draped externally, and then, abdominal part was covered with wet absorbent cotton with saline to prevent from drying. In 30 minutes after incision, while the bowel was draped externally, mice were decapitated and blood samples were collected into siliconized tubes, prechilled on ice, which contained 20ul of 100mM EDTA. Blood samples were centrifuged at 7,000 x g and 4°C for 20 minutes and the supernatant was obtained. Negative control mice not subjected to surgical stress were decapitated and blood samples were collected in 35 minutes after injection of the solvent alone. […]"}, "[4]": {"tested_on": "adrenocorticotropic hormone (ACTH)", "test": "Test 1: Effects on a rise in releasing of ACTH caused by surgical stress", "assay_type": "in vivo, mouse", "conditions": "mice", "protocol": "Test 1 Effects on a rise in releasing of stress hormone caused by surgical stress - effects on a rise in releasing of adrenocorticotropic hormone (ACTH)\nMice (ddY Slc male, 7 weeks of age) handled by being fastened up before the day of experiment were divided equally into groups according to their weights on the experimental day (the number of mouse in one group was 10). Mice were anesthetized by i.p. injection of 2.5mg/mouse pentobarbital Na (Nembutal(brand name), Dainihonseiyaku) and, 5 minutes later, the solvent(0.1N HCl/saline)alone or test medicine CP154,526HCl(0.3, 1 or 3 mg/kg)were intravenously injected into the tail veins of mice at a dose of 10ml/Kg weight of mouse. 10 minutes after injection, a midline incision was made in the abdomen and in about two minutes movable bowel was draped externally. Then 25 minutes after incision, 0.6ml of blood sample was collected from aorta abdominalis for 1 minute gradually by using prechilled syringes (needle size 25G) which were wetted with 100mM EDTA solution. Control mice not subjected to surgical stress were given medication by the injection of the solvent alone 5 minutes after anesthesia. […] Blood samples were centrifuged at 7,000 x g and 4°C for 20 minutes and the concentration of ACTH in supernatant was determined by IRMA method using Allegro ACTH kit (Nihon Medi+Physics Co., Ltd.). […]"}, "[5]": {"conditions": "read-out: IC50(nM) [experiment 1]"}},
  "note": "Like-named read-outs stand apart in the source and are kept apart here.",
  "data": [
    {"compound": "CCc1cc(S(=O)(=O)N(CC)CC)cc(NC(=O)c2cc(Cl)c(O)c(Cl)c2)c1OC", "note": "[Example 6, 3,5-dichloro-N-(3-ethyl-5-diethylsulfamoyl-2-methoxyphenyl)-4-hydroxybenzamide]", "values": [
      {"measurement": "IC50", "setting": "[1]; [5]", "value": 218, "unit": "nM"}
    ]},
    {"compound": "CCN(CC)S(=O)(=O)c1cc(NC(=O)c2cc(Cl)c(O)c(Cl)c2)c(OC)c(OC)c1", "note": "[Example 10, 3,5-dichloro-N-(5-diethylsulfamoyl-2,3-dimethoxyphenyl)-4-hydroxybenzamide]", "values": [
      {"measurement": "IC50", "setting": "[1]; [5]", "value": 165, "unit": "nM"}
    ]},
    {"compound": "CCc1cc(S(=O)(=O)N(CC)CC)cc(NC(=O)c2cc(Cl)c([O-])c(Cl)c2)c1OC.[Na+]", "note": "[Example 8, sodium 2,6-dichloro-4-(N-(3-ethyl-5-diethylsulfamoyl-2-methoxyphenyl)carbamoyl)phenoxide]", "values": [
      {"measurement": "Inhibitory action on ACTH release (mg/kg) [experiment 2]", "setting": "[2]", "value": "10 to 30", "unit": "mg/kg"},
      {"measurement": "IC50", "setting": "[1]; [5]", "value": 195, "unit": "nM"}
    ]},
    {"compound": "CCCCN(CC)c1nc(C)nc2c1c(C)cn2-c1c(C)cc(C)cc1C.Cl", "note": "[CP-154,526 HCl, N-butyl-N-[2,5-dimethyl-7-(2,4,6-trimethylphenyl)-7H -pyrrolo[2,3-d]pyrimidine-4-yl]-N-ethylamine chloride]", "values": [
      {"measurement": "increase of corticosterone concentration in plasma", "setting": "[3]; i.v. 0.3, 1, 3 or 10 mg/kg, surgical stress, viscera exposed 30 minutes, dose-dependently (Fig. 2)", "value": "inhibited"},
      {"measurement": "dose showing statistically significant inhibitory action on increase of corticosterone concentration in plasma", "setting": "[3]; i.v., surgical stress (Fig. 2)", "value": "not less than 10 mg/Kg"},
      {"measurement": "increase of ACTH concentration in plasma", "setting": "[4]; i.v. 0.3, 1 or 3 mg/kg, surgical stress, dose-dependently (Fig. 1)", "value": "inhibited"},
      {"measurement": "dose showing statistically significant inhibitory action on increase of ACTH concentration in plasma", "setting": "[4]; i.v., surgical stress (Fig. 1)", "value": "not less than 1 mg/Kg"}
    ]},
    {"compound": "CCN(CC)S(=O)(=O)c1cc(NC(=O)c2cc(Cl)c(O)c([N+](=O)[O-])c2)c(OC)c(OC)c1", "note": "[Example 11, 3-chloro-N-(5-diethylsulfamoyl-2,3-dimethoxyphenyl)-4-hydroxy-5-nitrobenzamide]", "values": [
      {"measurement": "IC50", "setting": "[1]; [5]", "value": 123, "unit": "nM"}
    ]},
    {"compound": "CCN(CC)S(=O)(=O)c1cc(NC(=O)c2cc(Cl)c(O)c(Cl)c2)c(OC)c(N(C)C)c1", "note": "[Example 12, 3,5-dichloro-N-(5-diethylsulfamoyl-3-(dimethylamino)-2-methoxyphenyl)-4-hydroxybenzamide.]", "values": [
      {"measurement": "IC50", "setting": "[1]; [5]", "value": 57, "unit": "nM"}
    ]},
    {"compound": "CCc1cc(S(=O)(=O)N(CC)CC)cc(NC(=O)c2cc(Cl)c(OP(=O)(O)O)c(Cl)c2)c1OC.O=P(O)(O)O", "note": "[Example 9, phosphate 2,6-dichloro-4-(N-(3-ethyl-5-diethylsulfamoyl-2-methoxyphenyl)carbamoyl)phenylphosphate]", "values": [
      {"measurement": "Inhibitory action on ACTH release (mg/kg) [experiment 2]", "setting": "[2]", "value": "10 to 30", "unit": "mg/kg"},
      {"measurement": "IC50", "setting": "[1]; IC50(nM) [experiment 1]", "value": 278, "unit": "nM"}
    ]}
  ]
}
